Source: ChEMBL document CHEMBL5724914, “Linking interpersonal differences in gut microbiota composition and drug biotransformation activity” (2024)

Columns and labels:
[1] = (§1) The drug is tested on Z-029 corresponding to rat gut metagenome with ENA study accession number: PRJEB37062 and ENA sample accession number: ERS12561828 for biotransformation under anaerobic condition. The drug concentrations were measured over 9 timepoints collected between 0 and 24 hours of incubation by liquid-chromatography-coupled mass spectrometry (LC–MS); details: 2 µM
[2] = human gut metagenome, 24 h, 2 µM
[3] = as §1, with “on Z-030” for “on Z-029”, “to mouse” for “to rat”, “number: ERS12561829” for “number: ERS12561828”; details: 2 µM
[4] = as §1, with “on Z-024” for “on Z-029”, “to pig” for “to rat”, “number: ERS12561823” for “number: ERS12561828”; details: 2 µM
[5] = as §1, with “on WLS-077” for “on Z-029”, “to human” for “to rat”, “number: ERS12561750” for “number: ERS12561828”; details: 2 µM
[6] = human gut metagenome, 24 h, 2 µM; remark: listed apart in the source
[7] = human gut metagenome, 24 h, 2 µM; remark: listed apart in the source
[8] = as §1, with “Z-007” for “Z-029”, “ERS12561807” for “ERS12561828”; details: 2 µM
[9] = human gut metagenome, 24 h, 2 µM; remark: listed apart in the source
[10] = as §1, with “Z-005” for “Z-029”, “to” for “to rat gut”, “ERS12561805” for “ERS12561828”; details: 2 µM
[11] = human gut metagenome, 24 h, 2 µM; remark: listed apart in the source
[12] = human gut metagenome, 24 h, 2 µM; remark: listed apart in the source
[13] = human gut metagenome, 24 h, 2 µM; remark: listed apart in the source
[14] = as §1, with “on Z-001” for “on Z-029”, “to mouse” for “to rat”, “number: ERS12561801” for “number: ERS12561828”; details: 2 µM
[15] = human gut metagenome, 24 h, 2 µM; remark: listed apart in the source
[16] = human gut metagenome, 24 h, 2 µM; remark: listed apart in the source
[17] = as §1, with “on WLS-082” for “on Z-029”, “to human” for “to rat”, “number: ERS12561751” for “number: ERS12561828”; details: 2 µM
[18] = human gut metagenome, 24 h, 2 µM; remark: listed apart in the source
[19] = as §1, with “Z-012” for “Z-029”, “to” for “to rat gut”, “ERS12561812” for “ERS12561828”; details: 2 µM
[20] = as §1, with “on WLS-090” for “on Z-029”, “to human” for “to rat”, “number: ERS12561753” for “number: ERS12561828”; details: 2 µM
Also: call rule not given here.

Structure (SMILES)	Bacterial Biotransformation [1]	Bacterial Biotransformation [2]	Bacterial Biotransformation [3]	Bacterial Biotransformation [4]	Bacterial Biotransformation [5]	Bacterial Biotransformation [6]	Bacterial Biotransformation [7]	Bacterial Biotransformation [8]	Bacterial Biotransformation [9]	Bacterial Biotransformation [10]	Bacterial Biotransformation [11]	Bacterial Biotransformation [12]	Bacterial Biotransformation [13]	Bacterial Biotransformation [14]	Bacterial Biotransformation [15]	Bacterial Biotransformation [16]	Bacterial Biotransformation [17]	Bacterial Biotransformation [18]	Bacterial Biotransformation [19]	Bacterial Biotransformation [20]
CN/C(=N/CCSCc1nc[nH]c1C)NC#N [CIMETIDINE]	Compound NOT metabolized	Compound NOT metabolized	Compound NOT metabolized	Compound NOT metabolized	Compound metabolized	Compound metabolized	Compound metabolized	Compound NOT metabolized	Compound metabolized	Compound metabolized	Compound metabolized	Compound NOT metabolized	Compound NOT metabolized	Compound NOT metabolized	Compound NOT metabolized	Compound metabolized	Compound metabolized	Compound NOT metabolized	Compound metabolized	Compound metabolized
CC(=O)OCC(=O)[C@@]1(O)[C@@H](C)C[C@H]2[C@@H]3CCC4=CC(=O)C=C[C@]4(C)[C@@]3(F)[C@@H](O)C[C@@]21C [BETAMETHASONE ACETATE]	Compound metabolized	Compound NOT metabolized	Compound NOT metabolized	Compound metabolized	Compound NOT metabolized	Compound metabolized	Compound metabolized	Compound NOT metabolized	Compound metabolized	Compound metabolized	Compound metabolized	Compound NOT metabolized	Compound metabolized	Compound metabolized	Compound metabolized	Compound metabolized	Compound metabolized	Compound metabolized	Compound NOT metabolized	Compound metabolized
CCCCc1nc(Cl)c(CO)n1Cc1ccc(-c2ccccc2-c2nn[nH]n2)cc1 [LOSARTAN]	Compound metabolized	Compound metabolized	Compound NOT metabolized	Compound NOT metabolized	Compound NOT metabolized	Compound metabolized	Compound metabolized	Compound NOT metabolized	Compound metabolized	Compound NOT metabolized	Compound metabolized	Compound NOT metabolized	Compound metabolized	Compound NOT metabolized	Compound metabolized	Compound metabolized	Compound metabolized	Compound metabolized	Compound NOT metabolized	Compound metabolized
CCOC(=O)[C@H](CCc1ccccc1)N[C@@H](C)C(=O)N1[C@H](C(=O)O)C[C@H]2CCCC[C@@H]21 [TRANDOLAPRIL]	Compound NOT metabolized	Compound metabolized	Compound NOT metabolized	Compound metabolized	Compound metabolized	Compound NOT metabolized	Compound metabolized	Compound NOT metabolized	Compound metabolized	Compound metabolized	Compound metabolized	Compound NOT metabolized	Compound metabolized	Compound NOT metabolized	Compound metabolized	Compound metabolized	Compound metabolized	Compound metabolized	Compound NOT metabolized	Compound metabolized
CN1CCc2c(c3ccccc3n2Cc2ccccc2)C1.CN1CCc2c(c3ccccc3n2Cc2ccccc2)C1.O=S(=O)(O)c1cccc2c(S(=O)(=O)O)cccc12	Compound NOT metabolized	Compound NOT metabolized	Compound NOT metabolized	Compound metabolized	Compound NOT metabolized	Compound NOT metabolized	Compound NOT metabolized	Compound NOT metabolized	Compound NOT metabolized	Compound NOT metabolized	Compound metabolized	Compound NOT metabolized	Compound NOT metabolized	Compound NOT metabolized	Compound NOT metabolized	Compound NOT metabolized	Compound NOT metabolized	Compound NOT metabolized	Compound NOT metabolized	Compound metabolized
CN(C)C(=O)C(CCN1CCC(O)(c2ccc(Cl)cc2)CC1)(c1ccccc1)c1ccccc1 [LOPERAMIDE]	Compound NOT metabolized	Compound metabolized	Compound NOT metabolized	Compound metabolized	Compound metabolized	Compound metabolized	Compound metabolized	Compound NOT metabolized	Compound metabolized	Compound metabolized	Compound metabolized	Compound NOT metabolized	Compound metabolized	Compound metabolized	Compound metabolized	Compound metabolized	Compound metabolized	Compound metabolized	Compound metabolized	Compound metabolized
CCCCC(=O)N(Cc1ccc(-c2ccccc2-c2nnn[nH]2)cc1)[C@H](C(=O)O)C(C)C	Compound NOT metabolized	Compound metabolized	Compound NOT metabolized	Compound NOT metabolized	Compound metabolized	Compound metabolized	Compound metabolized	Compound NOT metabolized	Compound metabolized	Compound NOT metabolized	Compound metabolized	Compound NOT metabolized	Compound metabolized	Compound NOT metabolized	Compound metabolized	Compound metabolized	Compound metabolized	Compound NOT metabolized	Compound NOT metabolized	Compound metabolized
CN1CC(=O)N2[C@H](c3ccc4c(c3)OCO4)c3[nH]c4ccccc4c3C[C@@H]2C1=O	Compound NOT metabolized	Compound NOT metabolized	Compound NOT metabolized	Compound metabolized	Compound metabolized	Compound metabolized	Compound metabolized	Compound NOT metabolized	Compound metabolized	Compound NOT metabolized	Compound metabolized	Compound NOT metabolized	Compound NOT metabolized	Compound NOT metabolized	Compound metabolized	Compound metabolized	Compound metabolized	Compound NOT metabolized	Compound metabolized	Compound metabolized
